Results from ChEMBL document CHEMBL3885881, “DrugMatrix”.

Species: Rattus norvegicus
Assay: DrugMatrix - Regimen: Daily Repeat
Type: toxicity, organism-based, Sprague-Dawley
Set-up: regimen Daily Repeat, gender Male, age 6-8 weeks
Settings: in vivo, po, route oral GAVAGE, vehicle .5 % CMC; for ABSOLUTE BASOPHIL / ABSOLUTE EOSINOPHIL / ABSOLUTE LYMPHOCYTE / ABSOLUTE MONOCYTE / ABSOLUTE SEGMENTED NEUTROPHIL / BASOPHIL / EOSINOPHIL / ERYTHROCYTE COUNT / HEMATOCRIT / HEMOGLOBIN / LEUKOCYTE COUNT / LYMPHOCYTE / MEAN CORPUSCULAR HEMOGLOBIN / MEAN CORPUSCULAR HEMOGLOBIN CONCENTRATION / MEAN CORPUSCULAR VOLUME / MONOCYTE / NEUTROPHIL / NUCLEATED RED BLOOD CELLS / PLATELET COUNT: tissue Blood; for ALANINE AMINOTRANSFERASE / ALBUMIN / ALKALINE PHOSPHATASE / ASPARTATE AMINOTRANSFERASE / BLOOD UREA NITROGEN / CARBON DIOXIDE / CHLORIDE / CHOLESTEROL / CREATINE PHOSPHOKINASE / CREATININE / GLUCOSE / LACTATE DEHYDROGENASE / LIPASE / PHOSPHORUS / POTASSIUM / SODIUM / TOTAL BILIRUBIN / TOTAL PROTEIN / URIC ACID: tissue Plasma
[1] = 40 mg/kg, 120 h, dose level Low, time 5 day
[2] = 1200 mg/kg, 72 h, dose level High, time 3 day
[3] = 1200 mg/kg, 120 h, dose level High, time 5 day

SMILES: C[C@@](Cc1ccc(O)c(O)c1)(NN)C(=O)O.O [CARBIDOPA]
- ABSOLUTE BASOPHIL [1]: 0 CELLS/uL
- ABSOLUTE EOSINOPHIL [1]: 155.33 CELLS/uL
- ABSOLUTE LYMPHOCYTE [1]: 12037.67 CELLS/uL
- ABSOLUTE MONOCYTE [1]: 0 CELLS/uL
- ABSOLUTE SEGMENTED NEUTROPHIL [1]: 1407 CELLS/uL
- BASOPHIL [1]: 0%
- EOSINOPHIL [1]: 1%
- ERYTHROCYTE COUNT [1]: 5.47 x10E6/uL
- HEMATOCRIT [1]: 34.83%
- HEMOGLOBIN [1]: 13.23 G/DL
- LEUKOCYTE COUNT [1]: 13.6 x10E3/uL
- LYMPHOCYTE [1]: 88.33%
- MEAN CORPUSCULAR HEMOGLOBIN [1]: 24.23 pg
- MEAN CORPUSCULAR HEMOGLOBIN CONCENTRATION [1]: 38 G/DL
- MEAN CORPUSCULAR VOLUME [1]: 63.7 fL
- MONOCYTE [1]: 0%
- NEUTROPHIL [1]: 10.67%
- NUCLEATED RED BLOOD CELLS [1]: 0 /100WBC
- PLATELET COUNT [1]: 1237.67 x10E3/uL
- ALANINE AMINOTRANSFERASE [1]: 28.67 u/L
- ALBUMIN [1]: 4.33 G/DL
- ALKALINE PHOSPHATASE [1]: 366.33 u/L
- ASPARTATE AMINOTRANSFERASE [1]: 83 u/L
- BLOOD UREA NITROGEN [1]: 16 mg/dL
- CARBON DIOXIDE [1]: 26 mmol/L
- CHLORIDE [1]: 102.33 MEQ/L
- CHOLESTEROL [1]: 65.67 mg/dL
- CREATINE PHOSPHOKINASE [1]: 277.33 u/L
- CREATININE [1]: 0.2 mg/dL
- GLUCOSE [1]: 155.67 mg/dL
- LACTATE DEHYDROGENASE [1]: 251 u/L
- LIPASE [1]: 8.33 u/L
- PHOSPHORUS [1]: 12.53 mg/dL
- POTASSIUM [1]: 6.15 MEQ/L
- SODIUM [1]: 144.4 MEQ/L
- TOTAL BILIRUBIN [1]: 0.2 mg/dL
- TOTAL PROTEIN [1]: 6.03 G/DL
- URIC ACID [1]: 1.4 mg/dL
- ABSOLUTE BASOPHIL [2]: 0 CELLS/uL
- ABSOLUTE EOSINOPHIL [2]: 309.67 CELLS/uL
- ABSOLUTE LYMPHOCYTE [2]: 11320 CELLS/uL
- ABSOLUTE MONOCYTE [2]: 0 CELLS/uL
- ABSOLUTE SEGMENTED NEUTROPHIL [2]: 1103.67 CELLS/uL
- BASOPHIL [2]: 0%
- EOSINOPHIL [2]: 2.33%
- ERYTHROCYTE COUNT [2]: 5.55 x10E6/uL
- HEMATOCRIT [2]: 35.43%
- HEMOGLOBIN [2]: 13.47 G/DL
- LEUKOCYTE COUNT [2]: 12.73 x10E3/uL
- LYMPHOCYTE [2]: 88.67%
- MEAN CORPUSCULAR HEMOGLOBIN [2]: 24.3 pg
- MEAN CORPUSCULAR HEMOGLOBIN CONCENTRATION [2]: 38.03 G/DL
- MEAN CORPUSCULAR VOLUME [2]: 63.83 fL
- MONOCYTE [2]: 0%
- NEUTROPHIL [2]: 9%
- NUCLEATED RED BLOOD CELLS [2]: 0 /100WBC
- PLATELET COUNT [2]: 1345.33 x10E3/uL
- ALANINE AMINOTRANSFERASE [2]: 8.67 u/L
- ALBUMIN [2]: 4.63 G/DL
- ALKALINE PHOSPHATASE [2]: 300.67 u/L
- ASPARTATE AMINOTRANSFERASE [2]: 64.67 u/L
- BLOOD UREA NITROGEN [2]: 22.33 mg/dL
- CARBON DIOXIDE [2]: 26 mmol/L
- CHLORIDE [2]: 99 MEQ/L
- CHOLESTEROL [2]: 92.33 mg/dL
- CREATINE PHOSPHOKINASE [2]: 315 u/L
- CREATININE [2]: 0.24 mg/dL
- GLUCOSE [2]: 171.33 mg/dL
- LACTATE DEHYDROGENASE [2]: 80 u/L
- LIPASE [2]: 8.67 u/L
- PHOSPHORUS [2]: 12.73 mg/dL
- POTASSIUM [2]: 6.79 MEQ/L
- SODIUM [2]: 143.93 MEQ/L
- TOTAL BILIRUBIN [2]: 0.17 mg/dL
- TOTAL PROTEIN [2]: 6.5 G/DL
- URIC ACID [2]: 1.6 mg/dL
- ABSOLUTE BASOPHIL [3]: 0 CELLS/uL
- ABSOLUTE EOSINOPHIL [3]: 0 CELLS/uL
- ABSOLUTE LYMPHOCYTE [3]: 11666 CELLS/uL
- ABSOLUTE MONOCYTE [3]: 86.67 CELLS/uL
- ABSOLUTE SEGMENTED NEUTROPHIL [3]: 847.33 CELLS/uL
- BASOPHIL [3]: 0%
- EOSINOPHIL [3]: 0%
- ERYTHROCYTE COUNT [3]: 6.03 x10E6/uL
- HEMATOCRIT [3]: 37.47%
- HEMOGLOBIN [3]: 14.13 G/DL
- LEUKOCYTE COUNT [3]: 12.6 x10E3/uL
- LYMPHOCYTE [3]: 92.33%
- MEAN CORPUSCULAR HEMOGLOBIN [3]: 23.43 pg
- MEAN CORPUSCULAR HEMOGLOBIN CONCENTRATION [3]: 37.7 G/DL
- MEAN CORPUSCULAR VOLUME [3]: 62.1 fL
- MONOCYTE [3]: 0.67%
- NEUTROPHIL [3]: 7%
- NUCLEATED RED BLOOD CELLS [3]: 0 /100WBC
- PLATELET COUNT [3]: 1184.67 x10E3/uL
- ALANINE AMINOTRANSFERASE [3]: 6.67 u/L
- ALBUMIN [3]: 4.57 G/DL
- ALKALINE PHOSPHATASE [3]: 323.33 u/L
- ASPARTATE AMINOTRANSFERASE [3]: 44 u/L
- BLOOD UREA NITROGEN [3]: 20 mg/dL
- CARBON DIOXIDE [3]: 28 mmol/L
- CHLORIDE [3]: 101.33 MEQ/L
- CHOLESTEROL [3]: 58.67 mg/dL
- CREATINE PHOSPHOKINASE [3]: 151.67 u/L
- CREATININE [3]: 0.21 mg/dL
- GLUCOSE [3]: 157.67 mg/dL
- LACTATE DEHYDROGENASE [3]: 98 u/L
- LIPASE [3]: 8 u/L
- PHOSPHORUS [3]: 11.57 mg/dL
- POTASSIUM [3]: 6.41 MEQ/L
- SODIUM [3]: 146.5 MEQ/L
- TOTAL BILIRUBIN [3]: 0.17 mg/dL
- TOTAL PROTEIN [3]: 6.27 G/DL
- URIC ACID [3]: 1.5 mg/dL
